Test results: US10676477B2, “Factor XIa macrocycle inhibitors bearing a non-aromatic P2' group” (BRISTOL-MYERS SQUIBB COMPANY, priority 2015, dated 2020)
Structures can show the parent of a compound that is named as a salt.

Key:
human Factor XIa = biological target: T1, human Factor XIa (Homo sapiens, UniProt P03951); test: Factor XIa enzyme inhibition assay (chromogenic substrate S-2366), Ki; format: biochemical; settings: purified human Factor XIa, substrate S-2366, pH 7.4
T1 construct: purchased Haematologic Technologies
Experimental: (§1) The effectiveness of compounds of the present invention as inhibitors of the coagulation Factors XIa, VIIa, IXa, Xa, XIIa, plasma kallikrein chymotrypsin, trypsin, or thrombin, can be determined using a relevant purified serine protease, respectively, and an appropriate synthetic substrate. The rate of hydrolysis of the chromogenic or fluorogenic substrate by the relevant serine protease was measured both in the absence and presence of compounds of the present invention. […] A decrease in the rate of absorbance or fluorescence change in the presence of inhibitor is indicative of enzyme inhibition. Such methods are known to one skilled in the art. The results of this assay are expressed as the inhibitory constant, Ki.
Factor XIa determinations were made in 50 mM HEPES buffer at pH 7.4 containing 145 mM NaCl, 5 mM KCl, and 0.1% PEG 8000 (polyethylene glycol; JT Baker or Fisher Scientific). Determinations were made using purified human Factor XIa at a final concentration of 25-200 pM (Haematologic Technologies) and the synthetic substrate S-2366 (pyroGlu-Pro-Arg-pNA; CHROMOGENIX® or AnaSpec) at a concentration of 0.0002-0.001 M.
(§2) The Michaelis constant, Km, for substrate hydrolysis by each protease, was determined at 25° C. or 37° C. in the absence of inhibitor. Values of Ki were determined by allowing the protease to react with the substrate in the presence of the inhibitor. Reactions were allowed to go for periods of 20-180 minutes (depending on the protease) and the velocities (rate of absorbance or fluorescence change versus time) were measured. The following relationships were used to calculate Ki values: (Vmax*S)/(Km+S) (vo−vs)/vs=I/(Ki*(1+S/Km)) for a competitive inhibitor with one binding site; or vs/vo=A+((B−A)/(1+(IC50/(I)^n)); and Ki=IC50/(1+S/Km) for a competitive inhibitor where: […]

human plasma kallikrein = biological target: T2, human plasma kallikrein (Homo sapiens, UniProt P03952); test: Plasma kallikrein enzyme inhibition assay (chromogenic substrate S-2302), Ki; format: biochemical; settings: purified human plasma kallikrein, substrate S-2302, pH 7.5
T2 construct: purchased Enzyme Research Laboratories
Experimental: as §1
Plasma kallikrein determinations were made in 0.1 M sodium phosphate buffer at a pH of 7.5 containing 0.1-0.2 M sodium chloride and 0.5% PEG 8000. Determinations were made using purified human plasma kallikrein (Enzyme Research Laboratories) at a final assay concentration of 200 pM and the synthetic substrate S-2302 (H-(D)-Pro-Phe-Arg-pNA; CHROMOGENIX®) at a concentration of 0.00008-0.0004 M.
as §2

T1 sequence (P03951 388-625 limits assumed): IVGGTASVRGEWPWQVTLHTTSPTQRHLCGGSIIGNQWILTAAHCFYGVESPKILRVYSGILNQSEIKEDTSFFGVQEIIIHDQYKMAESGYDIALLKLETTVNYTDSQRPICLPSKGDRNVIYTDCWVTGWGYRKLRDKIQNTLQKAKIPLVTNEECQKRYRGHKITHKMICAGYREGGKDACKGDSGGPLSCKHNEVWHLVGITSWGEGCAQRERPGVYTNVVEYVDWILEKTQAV
T1 sequence (P03951 19-387 partner limits assumed): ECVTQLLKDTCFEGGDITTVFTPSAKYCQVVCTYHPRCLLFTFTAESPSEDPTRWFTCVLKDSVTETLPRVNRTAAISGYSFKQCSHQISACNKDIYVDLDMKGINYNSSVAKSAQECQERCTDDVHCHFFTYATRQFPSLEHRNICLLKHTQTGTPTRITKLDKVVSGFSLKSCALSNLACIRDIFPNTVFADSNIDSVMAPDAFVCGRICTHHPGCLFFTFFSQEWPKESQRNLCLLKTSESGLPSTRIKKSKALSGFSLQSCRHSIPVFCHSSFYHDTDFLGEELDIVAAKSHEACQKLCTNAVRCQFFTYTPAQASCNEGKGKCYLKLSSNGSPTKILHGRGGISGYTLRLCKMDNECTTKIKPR
T2 sequence (P03952 391-638 limits assumed): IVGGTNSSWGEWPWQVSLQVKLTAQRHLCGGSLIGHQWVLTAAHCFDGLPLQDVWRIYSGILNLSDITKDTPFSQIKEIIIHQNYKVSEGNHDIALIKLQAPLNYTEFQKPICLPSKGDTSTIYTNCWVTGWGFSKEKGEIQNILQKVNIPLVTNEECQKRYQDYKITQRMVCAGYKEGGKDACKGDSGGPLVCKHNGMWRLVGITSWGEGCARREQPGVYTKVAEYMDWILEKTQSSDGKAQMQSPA
T2 sequence (P03952 20-390 partner limits assumed): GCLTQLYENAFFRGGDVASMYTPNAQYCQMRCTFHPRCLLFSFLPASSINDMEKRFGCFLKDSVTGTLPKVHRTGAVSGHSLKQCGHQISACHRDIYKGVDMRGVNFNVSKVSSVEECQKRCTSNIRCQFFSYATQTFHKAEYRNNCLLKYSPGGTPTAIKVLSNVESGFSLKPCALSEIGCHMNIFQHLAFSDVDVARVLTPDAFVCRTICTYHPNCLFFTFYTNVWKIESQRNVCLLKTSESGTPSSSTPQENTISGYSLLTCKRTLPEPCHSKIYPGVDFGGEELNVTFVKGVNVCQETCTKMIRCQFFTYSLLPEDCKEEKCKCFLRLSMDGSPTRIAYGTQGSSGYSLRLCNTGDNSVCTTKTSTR

| SMILES | Ki (human Factor XIa) [µM] | Ki (human plasma kallikrein) [µM] |
| --- | --- | --- |
| CC(C)(C)OC(=O)N1CCN2c3cccc(c3)[C@@H](n3cnc(-c4cc(Cl)ccc4-n4cc(Cl)nn4)cc3=O)CCCCNC(=O)[C@H]2C1 [Example 15, tert-butyl (7R,14S)-14-{4-[5-chloro-2-(4-chloro-1H-1,2,3-triazol-1-yl)phenyl]-6-oxo-1,6-dihydropyrimidin-1-yl}-8-oxo-2,5,9-triazatricyclo[13.3.1.0^2,7]nonadeca-1(19),15,17-triene-5-carboxylate, trifluoromethylacetate] | 0.492 | 3.43 |
| CN1CCN2c3cccc(c3)[C@@H](n3cnc(-c4cc(Cl)ccc4-n4cc(Cl)nn4)cc3=O)CCCCCNC(=O)[C@H]2C1 [Example 13, (7R,15S)-15-{4-[5-chloro-2-(4-chloro-1H-1,2,3-triazol-1-yl)phenyl]-6-oxo-1,6-dihydropyrimidin-1-yl}-5-methyl-2,5,9-triazatricyclo[14.3.1.0^2,7]icosa-1(20),16,18-trien-8-one, trifluoromethyl acetate] | 0.01 | 0.441 |
| CC(C)(C)OC(=O)N1CCN2c3cccc(c3)[C@@H](n3cnc(-c4c(-n5cc(Cl)nn5)ccc(Cl)c4F)cc3=O)CCCCCNC(=O)[C@H]2C1 [Example 19, tert-butyl (7R,15S)-15-{4-[3-chloro-6-(4-chloro-1H-1,2,3-triazol-1-yl)-2-fluorophenyl]-6-oxo-1,6-dihydropyrimidin-1-yl}-8-oxo-2,5,9-triazatricyclo[14.3.1.0^2,7]icosa-(20),16,18-triene-5-carboxylate trifluoromethylacetate] | 0.005 | 0.345 |
| O=C1NCCCCC[C@H](n2cnc(-c3cc(Cl)ccc3-n3cc(Cl)nn3)cc2=O)c2cccc(c2)N2CCN(C3COC3)C[C@H]12 [Example 16, (7R,15S)-15-{4-[5-chloro-2-(4-chloro-1H-1,2,3-triazol-1-yl)phenyl]-6-oxo-1,6-dihydropyrimidin-1-yl}-5-(oxetan-3-yl)-2,5,9-triazatricyclo[14.3.1.0^2,7]icosa-1(20),16,18-trien-8-one trifluoromethylacetate] | 0.013 | 0.528 |
| O=C(O)CN1CCN2c3cccc(c3)[C@@H](n3cnc(-c4cc(Cl)ccc4-n4cc(Cl)nn4)cc3=O)CCCCCNC(=O)[C@H]2C1 [Example 14, 2-[(7R,15S)-15-{4-[5-chloro-2-(4-chloro-1H-1,2,3-triazol-1-yl)phenyl]-6-oxo-1,6-dihydropyrimidin-1-yl}-8-oxo-2,5,9-triazatricyclo[14.3.1.0^2,7]icosa-1(20),16,18-trien-5-yl]acetic acid trifluoromethyl acetate] | 0.005 | 0.107 |
| O=C1NCCCCC[C@H](n2cnc(-c3cc(Cl)ccc3-n3cc(Cl)nn3)cc2=O)c2cccc(c2)N2CCC[C@H]12 [Example 36, (6R,14S)-14-{4-[5-chloro-2-(4-chloro-1H-1,2,3-triazol-1-yl)phenyl]-6-oxo-1,6-dihydropyrimidin-1-yl}-2,8-diazatricyclo[13.3.1.0^2,6]nonadeca-1(19),15,17-trien-7-one] | 0.008 | 0.133 |
| COC(=O)NC[C@H]1Nc2cccc(c2)[C@@H](n2cnc(-c3cc(Cl)ccc3-n3cc(Cl)nn3)cc2=O)CCCCCNC1=O [Example 23, methyl N-{[(3R,11S)-11-{4-[5-chloro-2-(4-chloro-1H-1,2,3-triazol-1-yl)phenyl]-6-oxo-1,6-dihydropyrimidin-1-yl}-4-oxo-2,5-diazabicyclo[10.3.1]hexadeca-1(16),12,14-trien-3-yl]methyl}carbamate trifluoromethyl acetate] | 0.027 | 2.72 |
| O=C(NCC[C@H]1Nc2cccc(c2)[C@@H](n2cnc(-c3cc(Cl)ccc3-n3cc(Cl)nn3)cc2=O)CCCCCNC1=O)c1ccn(C(F)F)n1 [Example 29, N-{2-[(3R,11S)-11-{4-[5-chloro-2-(4-chloro-1H-1,2,3-triazol-1-yl)phenyl]-6-oxo-1,6-dihydropyrimidin-1-yl}-4-oxo-2,5-diazabicyclo[10.3.1]hexadeca-1(16),12,14-trien-3-yl]ethyl}-1-(difluoromethyl)-1H-pyrazole-3-carboxamide trifluoromethyl acetate] | 0.005 | 0.049 |
| CC(C)(C)OC(=O)CN1CCN2c3cccc(c3)[C@@H](n3cnc(-c4cc(Cl)ccc4-n4cc(Cl)nn4)cc3=O)CCCCCNC(=O)[C@H]2C1 [Example 11, tert-butyl 2-[(7R,15S)-15-{4-[5-chloro-2-(4-chloro-1H-1,2,3-triazol-1-yl)phenyl]-6-oxo-1,6-dihydropyrimidin-1-yl}-8-oxo-2,5,9-triazatricyclo[14.3.1.0^2,7]icosa-1(20),16,18-trien-5-yl]acetate trifluoromethylacetate] | 0.011 | 0.46 |
| O=C1CN2c3cccc(c3)[C@@H](n3cnc(-c4cc(Cl)ccc4-n4cc(Cl)nn4)cc3=O)CCCCCNC(=O)C2CN1 (stereo partly drawn) [Example 25, (15S)-15-{4-[5-chloro-2-(4-chloro-1H-1,2,3-triazol-1-yl)phenyl]-6-oxo-1,6-dihydropyrimidin-1-yl}-2,5,9-triazatricyclo[14.3.1.0^2,7]icosa-1(20),16,18-triene-4,8-dione] | 0.051 | 6.75 |

The remaining compounds from weak to strong by Ki (human Factor XIa), led by results:

| Ki (human Factor XIa) [µM] | Ki (human plasma kallikrein) [µM] | SMILES |
| --- | --- | --- |
| 1.31 | 2.55 | Cc1c(C(=O)N[C@H]2CCCCCNC(=O)[C@H]3CNCCN3c3cccc2c3)cnn1-c1cccc(Cl)c1F [Example 20, 1-(3-chloro-2-fluorophenyl)-5-methyl-N-[(7R,15S)-8-oxo-2,5,9-triazatricyclo[14.3.1.0^2,7]icosa-1(20),16,18-trien-15-yl]-1H-pyrazole-4-carboxamide hydrochloride] |
| 1.06 | 9.17 | COC(=O)N1CCN2c3cccc(c3)[C@@H](NC(=O)c3cnn(-c4cccc(Cl)c4F)c3C)CCCCCNC(=O)[C@H]2C1 [Example 21, methyl (7R,15S)-15-[1-(3-chloro-2-fluorophenyl)-5-methyl-1H-pyrazole-4-amido]-8-oxo-2,5,9-triazatricyclo[14.3.1.0^2,7]icosa-1(20),16,18-triene-5-carboxylate, trifluoromethyl acetate] |
| 0.871 | 14 | NCC[C@H]1Nc2cccc(c2)[C@@H](n2cnc(-c3cc(Cl)ccc3-n3cc(Cl)nn3)cc2=O)CCCCCNC1=O [Example 27, (3R,11S)-3-(2-aminoethyl)-11-{4-[5-chloro-2-(4-chloro-1H-1,2,3-triazol-1-yl)phenyl]-6-oxo-1,6-dihydropyrimidin-1-yl}-2,5-diazabicyclo[10.3.1]hexadeca-1(16),12,14-trien-4-one hydrochloride] |
| 0.643 | 4.11 | COC(=O)N1CCN2c3cccc(c3)[C@@H](n3cnc(-c4cc(Cl)ccc4-n4cc(Cl)nn4)cc3=O)CCCCCNC(=O)[C@@H]2C1 [Example 3, methyl (7S,15S)-15-{4-[5-chloro-2-(4-chloro-1H-1,2,3-triazol-1-yl)phenyl]-6-oxo-1,6-dihydropyrimidin-1-yl}-8-oxo-2,5,9-triazatricyclo[14.3.1.0^2,7]icosa-1(20),16,18-triene-5-carboxylate] |
| 0.542 | 7.29 | O=C1NCCCCC[C@H](n2cnc(-c3cc(Cl)ccc3-n3cc(Cl)nn3)cc2=O)c2cccc(c2)N2CCNC[C@@H]12 [Example 2, (7S,15S)-15-{4-[5-chloro-2-(4-chloro-1H-1,2,3-triazol-1-yl)phenyl]-6-oxo-1,6-dihydropyrimidin-1-yl}-2,5,9-triazatricyclo[14.3.1.0^2,7]icosa-1(20),16,18-trien-8-one hydrochloride] |
| 0.011 | 1.82 | O=C1NCCCCC[C@H](n2cnc(-c3cc(Cl)ccc3-n3cc(Cl)nn3)cc2=O)c2cccc(c2)N2CCNC[C@H]12 [Example 9, (7R,15S)-15-{4-[5-chloro-2-(4-chloro-1H-1,2,3-triazol-1-yl)phenyl]-6-oxo-1,6-dihydropyrimidin-1-yl}-2,5,9-triazatricyclo[14.3.1.0^2,7]icosa-1(20),16,18-trien-8-one hydrochloride] |
| 0.005 | 0.189 | COC(=O)N1CCN2c3cccc(c3)[C@@H](N3CCC(c4cc(Cl)ccc4-n4cc(Cl)nn4)=CC3=O)CCCCCNC(=O)[C@H]2C1 [Example 22, methyl (7R,15S)-15-{4-[5-chloro-2-(4-chloro-1H-1,2,3-triazol-1-yl)phenyl]-6-oxo-1,2,3,6-tetrahydropyridin-1-yl}-8-oxo-2,5,9-triazatricyclo[14.3.1.0^2,7]icosa-1(20),16,18-triene-5-carboxylate trifluoromethyl acetate] |
